Measured values taken from article PMC2533715, “Suppressive Effects of Selected Food Phytochemicals on CD74 Expression in NCI-N87 Gastric Carcinoma Cells” (Journal of Clinical Biochemistry and Nutrition, 2008).

Key:
[1] = tested on: CD74; assay: Cell-based ELISA for constitutive CD74 expression; design: species or system human; details: 48 h, NCI-N87 cells; for IR (%) inhibition rate of CD74 expression: mean ± average deviation; for IC50: mean of duplicate experiments, unit printed in b25 only, read-out: IC50 (50% inhibitory concentration) for constitutive CD74 expression
[2] = tested on: H. pylori urease; design: method as in PMID 14550260; details: in vitro; cited from earlier work
[3] = tested on: H. pylori-induced gastritis; design: method as in PMID 14550260; details: Mongolian gerbils; cited from earlier work
[4] = Cell viability (MTT); details: human
[5] = tested on: cytochrome P450 (CYP) 3A4; design: method as in PMID 9548795; details: cited from earlier work
[6] = tested on: CYP1A1; design: method as in PMID 15670584; details: cited from earlier work
[7] = tested on: MCF-7 cells; design: method as in PMID 12641443; details: induced by benzo[a]pyrene and 7,12-dimethylbenz[a]anthracene; cited from earlier work
[8] = tested on: skin tumors; design: method as in PMID 9276625; details: mice; cited from earlier work
[9] = tested on: NO generation; design: method as in PMID 10563895; details: cited from earlier work
[10] = tested on: leukemia differentiation; design: method as in PMID 10552768; details: cited from earlier work
[11] = NCI-N87 gastric carcinoma cells

Row | SMILES | IR (%) inhibition rate of CD74 expression ([1]; 4 µM) [%] | IR (%) inhibition rate of CD74 expression ([1]; 20 µM) [%] | IR (%) inhibition rate of CD74 expression ([1]; 100 µM) [%] | Suppression of CD74 expression (in words) [1] | IC50 [1] [µM] | H. pylori urease activity [2] | H. pylori-induced gastritis [3] | CC50 at 48 h [4] [µM] | viability at 48 h, 4 µM [4, 11] [%] | viability at 48 h, 20 µM [4, 11] [%] | viability at 48 h, 100 µM [4, 11] [%] | IR (%) inhibition rate of CD74 expression ([1]; 20 µM, listed as bergamottin) [%] | Inhibition of cytochrome P450 (CYP) 3A4 [5] | Inhibition of CYP1A1 [6] | Formation of DNA adducts [7] | Skin tumors [8] | NO generation [9] | Leukemia differentiation [10] | CC50 at 48 h [4, 11] [µM]
1 | O=C(OC1Cc2c(O)cc(O)cc2OC1c1cc(O)c(O)c(O)c1)c1cc(O)c(O)c(O)c1 (single isomer, unassigned; (-)) [EGCG, (−)-epigallocatechin-3-gallate] | −110 ± 8.3 | −149 ± 3.8 | −217 ± 4.0 | did not suppress CD74 expression, but rather enhanced it | > 100 | strongly inhibited | suppressed | > 100 | 78 ± 6.3 | 77 ± 3.1 | 78 ± 5 |  |  |  |  |  |  |  | 
2 | CC(C)=CCC/C(C)=C/COc1c2ccoc2cc2oc(=O)ccc12 [Bergamottin] | 8.6 ± 4.2 | 74 ± 8.2 |  | significant activity | 14.2 |  |  |  | 93 | 79 | 59 ± 2.1 | 74 | inhibit | inhibit | reduced | reduced | reduced | induced | > 100
